From patent US20260001849A1, “NOVEL B0AT1 INHIBITOR” (MITSUBISHI TANABE PHARMA CORPORATION, priority 2023, published 2026)
Like-named read-outs stand apart in the source and are kept apart here.

Experiments:
Human BOAT1 = target: T1, Human BOAT1 (Homo sapiens, UniProt Q695T7); assay: hBOAT1 inhibitory test (phenylalanine uptake); assay type: cell-based; conditions: Human BOAT1 stable expression CHO cells, phenylalanine 0.25 mM, read-out: hB0AT1 IC50
T1 construct: expressed in transfected cells
T1 sequence (Q695T7 1-634): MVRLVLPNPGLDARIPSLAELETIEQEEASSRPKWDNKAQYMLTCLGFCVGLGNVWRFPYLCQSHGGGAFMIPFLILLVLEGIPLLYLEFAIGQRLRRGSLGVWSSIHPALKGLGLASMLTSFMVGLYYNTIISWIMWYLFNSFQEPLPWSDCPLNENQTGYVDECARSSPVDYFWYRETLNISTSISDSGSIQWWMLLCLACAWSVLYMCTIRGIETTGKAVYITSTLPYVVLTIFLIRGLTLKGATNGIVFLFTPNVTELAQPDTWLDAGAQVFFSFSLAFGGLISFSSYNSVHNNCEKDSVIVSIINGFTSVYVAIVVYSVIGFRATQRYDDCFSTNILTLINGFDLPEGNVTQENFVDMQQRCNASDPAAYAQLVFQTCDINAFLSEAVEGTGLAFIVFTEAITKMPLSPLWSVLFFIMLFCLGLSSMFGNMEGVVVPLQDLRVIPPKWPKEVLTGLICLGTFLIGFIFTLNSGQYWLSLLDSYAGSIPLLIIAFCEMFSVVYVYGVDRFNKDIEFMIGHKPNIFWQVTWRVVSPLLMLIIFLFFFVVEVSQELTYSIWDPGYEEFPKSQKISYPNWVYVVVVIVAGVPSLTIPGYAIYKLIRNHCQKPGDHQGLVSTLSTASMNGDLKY
Protocol: A test compound dissolved in dimethyl sulfoxide (DMSO) was added to a 96 well plate for solid phase radioactivity measurement containing a scintillator at the bottom of the well (final concentration of DMSO 0.5%). DMSO alone as a control and DMSO containing N-(4-bromophenyl)-3,5-dichloro-2-hydroxybenzamide (final concentration […]) for the measurement of BOAT1 non-specific uptake were similarly added at 0.5 μL per well. Human BOAT1 stable expression CHO cells suspended in a buffer (buffer containing 96 mM sodium chloride, 2 mM potassium chloride, 1.8 mM calcium chloride, 1 mM magnesium chloride, 0.01% bovine serum albumin, and 10 mM 2-[4-(2-hydroxyethyl)-1-piperazinyl]ethanesulfonic acid) were added by 90 μL to 75000 cells/well. After standing at ordinary temperature for 30 min or longer, the cells were subjected to a phenylalanine uptake experiment. A buffer containing L-phenylalanine and [3,4,5-3H]-L-phenylalanine was added by 10 μL per well (final concentration of phenylalanine 0.25 mM), and the radioactivity of the plate bottom surface at ordinary temperature was measured with a scintillation counter over time, and the radioactivity value after 100 to 200 min was analyzed.

hERG channel = target: T2, hERG channel (Homo sapiens, UniProt Q12809); assay: hERG channel inhibitory activity, whole-cell patch clamp (auto-patch clamp system); assay type: cell-based
T2 construct: host or cells: CHO cells
Protocol: Evaluation of hERG (Human Ether-a-go-go Related Gene) Channel Inhibitory Activity
The hERG channel inhibitory activity of the compound of the present invention was measured using CHO cells (B′ SYS GmbH) forcibly expressing hERG channels involved in human rapidly active delayed rectifier potassium current (IKr) by the whole-cell patch clamp method using an auto-patch clamp system (SyncroPatch384PE).
Cell suspension, extracellular fluid, intracellular fluid, and measurement plate (NPC-384 plate) were placed in the auto-patch clamp system, and hERG current measurements were performed using the whole-cell patch clamp method. The voltage protocol was set to a holding potential of −80 mV, with a depolarizing pulse preceded by −90 mV (100 ms) and followed by −80 mV (100 ms).
The depolarizing pulse was […] (500 ms), and then the hERG peak current value obtained during the ramp phase was measured when the voltage was lowered to −80 mV over 100 ms. The protocol was applied at 5-second intervals for 5 minutes for each concentration.
SyncroPatch software (manufactured by Nanion) was used for data analysis. Four concentrations were applied incrementally for each test substance, and the average hERG Peak current value obtained from the last three stimuli of each applied concentration was used as the evaluation data. The IC50 value was calculated from the inhibition rate of the current at each concentration of each test substance relative to the pre-application value using Hill's equation (Hill equation) using the relevant software.
The same experiments were also performed using the example compounds described in WO 2023/145804 as comparative example compounds 1-4.

[1] = comparative example compounds of WO 2023/145804, read-out: hERG inhibition IC50
[2] = [3H]-L-phenylalanine uptake, radioactivity after 100 to 200 min

T2 sequence (Q12809 whole entry): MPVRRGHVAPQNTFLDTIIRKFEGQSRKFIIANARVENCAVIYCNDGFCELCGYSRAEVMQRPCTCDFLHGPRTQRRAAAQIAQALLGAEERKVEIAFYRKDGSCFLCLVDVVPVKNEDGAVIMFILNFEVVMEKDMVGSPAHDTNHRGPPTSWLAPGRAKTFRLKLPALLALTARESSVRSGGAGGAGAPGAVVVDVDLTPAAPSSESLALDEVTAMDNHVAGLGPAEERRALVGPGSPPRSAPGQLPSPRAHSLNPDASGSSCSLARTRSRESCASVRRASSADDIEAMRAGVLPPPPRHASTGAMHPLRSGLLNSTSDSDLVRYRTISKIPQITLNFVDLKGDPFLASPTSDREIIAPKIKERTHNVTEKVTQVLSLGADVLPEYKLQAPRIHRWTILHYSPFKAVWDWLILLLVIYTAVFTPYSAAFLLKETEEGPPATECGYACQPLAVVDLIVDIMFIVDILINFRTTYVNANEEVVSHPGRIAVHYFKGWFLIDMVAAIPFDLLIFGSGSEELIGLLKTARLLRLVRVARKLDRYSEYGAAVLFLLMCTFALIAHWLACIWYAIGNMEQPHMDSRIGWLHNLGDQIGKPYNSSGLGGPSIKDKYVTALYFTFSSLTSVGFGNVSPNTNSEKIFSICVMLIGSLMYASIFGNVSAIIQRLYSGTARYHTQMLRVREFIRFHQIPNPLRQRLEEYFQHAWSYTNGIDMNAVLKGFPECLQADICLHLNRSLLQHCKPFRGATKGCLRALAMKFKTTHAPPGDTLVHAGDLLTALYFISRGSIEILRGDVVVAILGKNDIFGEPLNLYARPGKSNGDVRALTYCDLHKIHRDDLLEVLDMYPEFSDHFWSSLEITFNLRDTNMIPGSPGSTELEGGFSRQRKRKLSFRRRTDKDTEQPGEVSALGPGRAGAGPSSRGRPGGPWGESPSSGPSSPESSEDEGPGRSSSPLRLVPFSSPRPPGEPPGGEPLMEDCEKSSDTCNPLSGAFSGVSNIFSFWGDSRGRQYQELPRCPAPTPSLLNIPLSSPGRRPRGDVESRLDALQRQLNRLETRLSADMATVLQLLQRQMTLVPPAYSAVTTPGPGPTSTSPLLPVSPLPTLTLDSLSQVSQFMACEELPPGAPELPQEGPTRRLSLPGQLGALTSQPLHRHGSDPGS

Row | SMILES | IC50 (Human BOAT1; phenylalanine uptake) [nM] | IC50 (Human BOAT1; [2]) [nM] | IC50 (hERG channel; read-out: hERG IC50) [nM] | IC50 (hERG channel; [1]) [nM]
1 | O=C(/C=C/c1ccc(C(F)(F)F)cc1)NCC(=O)N1CCc2ncsc2C1 [Comparative Example compound 4, reference compound] | – | – | – | 5960
2 | N#Cc1c(CC(=O)O)ccc2c1CCN(C(=O)CNC(=O)/C=C/c1ccc(C(F)(F)F)cc1)C2 [I-150] | – | 182 | 24900 | –
3 | C[C@@H]1CN(C(=O)CNC(=O)/C=C/c2ccc(C(F)(F)F)cc2F)[C@@H](C)CN1CCCC(=O)O [I-197] | – | 2400 | > 30000 | –
4 | O=C(O)Cc1ccc2c(c1)CCN(C(=O)CNC(=O)/C=C/c1ccc(Cl)cc1)C2 [I-185] | – | 168 | > 30000 | –
5 | O=C(O)CCCN1CCN(C(=O)CNC(=O)/C=C/c2ccc(C(F)(F)F)cc2F)C(c2ccc(Cl)c(F)c2)C1 (centres unmarked) [I-267] | – | – | > 30000 | –
6 | O=C(O)Cc1cc2c(s1)CCN(C(=O)CNC(=O)/C=C/c1ccc(C(F)(F)F)cc1)C2 [I-178] | – | – | > 30000 | –
7 | O=C(O)Cc1ccc2c(c1)CCN(C(=O)CNC(=O)/C=C/c1ccc(S(F)(F)(F)(F)F)cc1)C2 [I-190] | – | 102 | > 30000 | –
8 | O=C(O)CCCN1CCN(C(=O)CNC(=O)/C=C/c2ccc(C(F)(F)F)cc2)C(c2ccccc2)C1 (centres unmarked) [I-204] | – | 246 | > 30000 | –
9 | O=C(O)CCCN1CCN(C(=O)CNC(=O)/C=C/c2ccc(C(F)(F)F)cc2F)C(c2ccc(Cl)cc2)C1 (racemic) [I-236, 4-[3-(4-chlorophenyl)-4-[2-[[(E)-3-[2-fluoro-4-(trifluoromethyl)phenyl]prop-2-enoyl]amino]acetyl]piperazin-1-yl]butanoic acid] | – | 94 | > 30000 | –
10 | O=C(O)COc1ccc2c(c1)CCN(C(=O)CNC(=O)/C=C/c1ccc(C(F)(F)F)cc1)C2 [I-191] | – | 104 | > 30000 | –
11 | O=C(/C=C/c1ccc(C(F)(F)F)cc1F)NCC(=O)N1CCCC(c2ccccc2C(=O)O)C1 (centres unmarked) [I-253] | – | – | 26200 | –
12 | CN1CCN(C(=O)CNC(=O)/C=C/c2ccc(C(F)(F)F)cc2)C(c2ccccc2)C1 (centres unmarked) [Comparative Example compound 1, reference compound] | – | – | – | 2090
13 | CC(C)(Oc1cc(F)c2c(c1)CCN(C(=O)CNC(=O)/C=C/c1ccc(C(F)(F)F)cc1)C2)C(=O)O [I-195] | – | 186 | > 30000 | –
14 | O=C(O)Cc1nc2c(s1)CCN(C(=O)CNC(=O)/C=C/c1ccc(C(F)(F)F)cc1)C2 [I-201] | – | 54 | > 30000 | –
15 | O=C(O)CSc1nc2c(s1)CN(C(=O)CNC(=O)/C=C/c1ccc(C(F)(F)F)cc1F)CC2 [I-214] | – | 91 | > 30000 | –
16 | O=C(O)Cc1cc2c(cc1F)CN(C(=O)CNC(=O)/C=C/c1ccc(C(F)(F)F)cc1)CC2 [I-180] | – | 122 | > 30000 | –
17 | N#Cc1cc(CC(=O)O)cc2c1CN(C(=O)CNC(=O)/C=C/c1ccc(C(F)(F)F)cc1)CC2 [I-148] | – | 207 | > 30000 | –
18 | O=C(O)CCCN1CCN(C(=O)CNC(=O)/C=C/c2ccc(C(F)(F)F)cc2F)CC1C1CCCCC1 (centres unmarked) [I-271] | – | – | 16400 | –
19 | O=C(O)Cc1cc(F)c2c(c1)CCN(C(=O)CNC(=O)/C=C/c1ccc(C(F)(F)F)cc1)C2 [I-143] | – | 151 | > 30000 | –
20 | O=C(/C=C/c1ccc(C(F)(F)F)cc1)NCC(=O)N1CCNCC1 [Comparative Example compound 2, reference compound] | – | – | – | 8720
21 | N#Cc1cc2c(cc1CC(=O)O)CCN(C(=O)CNC(=O)/C=C/c1ccc(C(F)(F)F)cc1F)C2 [I-225] | – | 295 | 26200 | –
22 | O=C(O)Cc1ccc2c(c1)CCN(C(=O)CNC(=O)/C=C/c1ccc(Cl)cc1F)C2 [I-186] | – | 76 | > 30000 | –
23 | O=C(O)COc1cccc2c1CCN2C(=O)CNC(=O)/C=C/c1ccc(C(F)(F)F)cc1 [I-194] | – | 74 | > 30000 | –
24 | O=C(O)Cc1nc2c(s1)CN(C(=O)CNC(=O)/C=C/c1ccc(C(F)(F)F)cc1)CC2 [I-202] | – | 149 | > 30000 | –
25 | O=C(O)CCCN1CCN(C(=O)CNC(=O)/C=C/c2ccc(C(F)(F)F)cc2F)CC1C(F)(F)F (centres unmarked) [I-198] | – | – | > 30000 | –
26 | CN1CCN(C(=O)CNC(=O)/C=C/c2ccc(C(F)(F)F)cc2)CC1 [Comparative Example compound 3, reference compound] | – | – | – | 3630
27 | COc1cc2c(cc1CC(=O)O)CCN(C(=O)CNC(=O)/C=C/c1ccc(C(F)(F)F)cc1)C2 [I-176] | – | – | > 30000 | –
28 | C[C@H]1CN(C(=O)CNC(=O)/C=C/c2ccc(C(F)(F)F)cc2F)[C@@H](c2ccccc2)CN1CCCC(=O)O [I-252] | – | – | > 30000 | –
29 | O=C(/C=C/c1ccc(C(F)(F)F)cc1)NCC(=O)N1CCc2cc(C3(C(=O)O)CC3)ccc2C1 [I-166] | – | – | > 30000 | –
30 | C[C@@H]1CN(CCCC(=O)O)[C@@H](C)CN1C(=O)CNC(=O)/C=C/c1ccc(C(F)(F)F)cc1F [I-235] | – | – | > 30000 | –

Further lines, with some results ahead:

Row | IC50 (Human BOAT1; phenylalanine uptake) [nM] | IC50 (Human BOAT1; [2]) [nM] | SMILES | IC50 (hERG channel; read-out: hERG IC50) [nM] | IC50 (hERG channel; [1]) [nM]
31 | 2900 | – | Cc1noc([C@H]2CN(CCCC(=O)O)CCN2C(=O)CNC(=O)/C=C/c2ccc(C(F)(F)F)cc2F)n1 [I-401] | > 30000 | –
32 | 108 | – | O=C(O)CCCN1CCN(C(=O)CNC(=O)/C=C/c2ccc(C(F)(F)F)cc2F)C(c2ccc(Cl)c(F)c2)C1 (centres unmarked) [I-257] | 29600 | –
33 | 400 | – | C[C@@H]1[C@H](c2ccccc2)N(C(=O)CNC(=O)/C=C/c2ccc(C(F)(F)F)cc2F)CCN1CCCC(=O)O [I-353] | > 30000 | –
34 | 42 | – | C[C@@H]1CN(C(=O)CNC(=O)/C=C/c2ccc(C(F)(F)F)cc2F)[C@@H](c2ccc3ccccc3c2)CN1CCCC(=O)O [I-398] | 25600 | –
35 | 75 | – | [2H]C([2H])([2H])[C@@H]1CN(C(=O)CNC(=O)/C=C/c2ccc(C(F)(F)F)cc2F)[C@@H](c2ccccc2)CN1CCCC(=O)O [I-397] | > 30000 | –
36 | – | 97 | O=C(O)CCCN1CCN(C(=O)CNC(=O)/C=C/c2ccc(C(F)(F)F)cc2F)C(c2cccc(Cl)c2)C1 (centres unmarked) [I-238] | > 30000 | –
37 | 71 | – | C[C@@H]1CN(C(=O)CNC(=O)/C=C/c2ccc(C(F)(F)F)cc2F)[C@@H](c2ccc(Cl)s2)CN1CCC(=O)O [I-396] | > 30000 | –
38 | – | 158 | O=C(O)CCCCN1CCN(C(=O)CNC(=O)/C=C/c2ccc(C(F)(F)F)cc2F)C(c2ccccc2)C1 (centres unmarked) [I-242] | > 30000 | –
39 | 636 | – | C[C@@H]1CN(C(=O)CNC(=O)/C=C/c2ccc(C(F)(F)F)cc2F)[C@@H](c2cccnc2)CN1CCCC(=O)O [I-395] | > 30000 | –
40 | 31 | – | C[C@@H]1CN(C(=O)CNC(=O)/C=C/c2ccc(C(F)(F)F)cc2F)[C@@H](c2ccc(Cl)cc2)CN1CCCC(=O)O [I-337] | 15500 | –
41 | 338 | – | CC(C)[C@@H]1CN(C(=O)CNC(=O)/C=C/c2ccc(C(F)(F)F)cc2F)[C@@H](c2ccccc2)CN1CCCC(=O)O [I-342] | > 30000 | –
42 | – | 506 | O=C(/C=C/c1ccc(C(F)(F)F)cc1F)NCC(=O)N1CCN(CC23CC(C(=O)O)(C2)C3)CC1c1ccc(Cl)cc1 (centres unmarked) [I-250] | > 30000 | –
43 | – | 161 | O=C(O)CCN1CCN(C(=O)CNC(=O)/C=C/c2ccc(C(F)(F)F)cc2F)C(c2ccccc2)C1 (centres unmarked) [I-241] | > 30000 | –
44 | 2890 | – | O=C(O)CCCN1C[C@H](c2ccccc2)N(C(=O)CNC(=O)/C=C/c2ccc(C(F)(F)F)cc2F)C[C@H]1C(F)(F)F [I-399] | – | –
